Like-named read-outs stand apart in the source and are kept apart here.
What was measured:
[1] = target: HCV NS3/4A protease genotype 1b (Hepatitis C virus genotype 1b, UniProt P26663); assay: HCV NS3/4A protease time-resolved fluorescence (TRF) assay, Ki against genotype 1b; type: biochemical; conditions: IC50 [gt-1b], NS3/4A protease TRF assay, genotype 1b enzyme 0.2 nM
Method in brief: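 NS3/4A enzyme was preincubated 30 min with inhibitor in 50 mM HEPES pH 7.5, 150 mM NaCl, 15% glycerol, 0.15% Triton X-100, 10 mM DTT, 0.1% PEG 8000; 25 nM europium TRF peptide substrate added, 2.5 h at room temperature. Enzyme: 0.2 nM (1b), 0.4 nM (A156T), 0.025 nM (3a). Ki from IC50 via Cheng-Prusoff.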

[2] = test system: HCV genotype 1b replicon; assay: HCV replicon assay, genotype 1b replicon EC50; type: cell-based, Hepatitis C virus; conditions: HCV replicon, genotype 1b, read-out: EC50 [gt-1b]
Method in brief: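 Stable neomycin-selected genotype 1b replicon cells, some carrying luciferase:Neo^r fusion, plated without G418 with a compound dilution series and incubated 24-48 h. Read-out was RNA (^32P-probe protection or TaqMan, normalized to cyclophilin A) or luciferase activity. EC50 from four-parameter fit as percent of DMSO control.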

SMILES | IC50 [1] [pM] | EC50 ([2]; Hepatitis C virus) [pM] | EC50 [2] [pM] | IC50 ([1]; K+ salt) [pM] | EC50 ([2]; Hepatitis C virus, K+ salt) [pM]
COc1ccc2nc(C)c3c(c2n1)[C@H](F)C[C@]1(C[C@H]2C(=O)N[C@]4(C(=O)NS(=O)(=O)C5(C)CC5)C[C@H]4/C=C\CCCCC[C@H](NC(=O)OC(C)(C)C)C(=O)N2C1)O3 [Example 374, tert-butyl [(2S,6S,10′R,12Z,13aS,14aR,16aS)-10′-fluoro-2′-methoxy-6′-methyl-14a-{[(1-methylcyclopropyl)sulfonyl]carbamoyl}-5,16-dioxo-1,5,6,7,8,9,9′,10,10′,11,13a,14,14a,15,16,16a-hexadecahydrospiro[cyclopropa[e]pyrrolo[1,2-a][1,4]diazacyclopentadecine-2,8′-pyrano[2,3-c][1,5]naphthyridin]-6-yl]carbamate] | 12 | 2290 |  |  | 
Cc1nc2ccccc2c2c1O[C@]1(CC2)C[C@H]2C(=O)N[C@]3(C(=O)NS(=O)(=O)C4(C)CC4)C[C@H]3/C=C\CCCCC[C@H](NC(=O)OC3CCC(F)(F)C3)C(=O)N2C1 (stereo partly drawn) [Example 375, 3,3-difluorocyclopentyl [(2R,6S,12Z,13aS,14aR,16aS)-5′-methyl-14a-{[(1-methylcyclopropyl)sulfonyl]carbamoyl}-5,16-dioxo-1,1′,2′,5,6,7,8,9,10,11,13a,14,14a,15,16,16a-hexadecahydrospiro[cyclopropa[e]pyrrolo[1,2-a][1,4]diazacyclopentadecine-2,3′-pyrano[2,3-c]quinolin]-6-yl]carbamate] | 18 |  | 6380 |  | 
Cc1nc2ccccc2c2c1O[C@]1(CC2)C[C@H]2C(=O)N[C@]3(C(=O)NS(=O)(=O)C4(C)CC4)C[C@H]3/C=C\CCCCC[C@H](NC(=O)OC3CCC(F)(F)C3)C(=O)N2C1 (stereo partly drawn) [Example 376, 3,3-difluorocyclopentyl [(2R,6S,12Z,13aS,14aR,16aS)-5′-methyl-14a-{[(1-methylcyclopropyl)sulfonyl]carbamoyl}-5,16-dioxo-1,1′,2′,5,6,7,8,9,10,11,13a,14,14a,15,16,16a-hexadecahydrospiro[cyclopropa[e]pyrrolo[1,2-a][1,4]diazacyclopentadecine-2,3′-pyrano[2,3-c]quinolin]-6-yl]carbamate] | 13 |  | 2690 |  | 
COc1ccc2nc(C)c3c(c2n1)[C@H](F)C[C@]1(C[C@H]2C(=O)N[C@]4(C(=O)NS(=O)(=O)C5(C)CC5)C[C@H]4/C=C\CCCCC[C@H](NC(=O)OCC(C)(C)C)C(=O)N2C1)O3 [Example 377, 2,2-dimethylpropyl [(2S,6S,10′R,12Z,13aS,14aR,16aS)-10′-fluoro-2′-methoxy-6′-methyl-14a-{[(1-methylcyclopropyl)sulfonyl]carbamoyl}-5,16-dioxo-1,5,6,7,8,9,9′,10,10′,11,13a,14,14a,15,16,16a-hexadecahydrospiro[cyclopropa[e]pyrrolo[1,2-a][1,4]diazacyclopentadecine-2,8′-pyrano[2,3-c][1,5]naphthyridin]-6-yl]carbamate] | 18 | 2520 |  |  | 
CC(C)(C)OC(=O)N[C@H]1CCCCC/C=C\[C@@H]2C[C@@]2(C(=O)NS(=O)(=O)C2(C)CC2)NC(=O)[C@@H]2C[C@]3(CCc4c(c(C(F)(F)F)nc5ccc(Cl)cc45)O3)CN2C1=O [Example 378, tert-butyl [(2R,6S,12Z,13aS,14aR,16aS)-9′-chloro-14a-{[(1-methylcyclopropyl)sulfonyl]carbamoyl}-5,16-dioxo-5′-(trifluoromethyl)-1,1′,2′,5,6,7,8,9,10,11,13a,14,14a,15,16,16a-hexadecahydrospiro[cyclopropa[e]pyrrolo[1,2-a][1,4]diazacyclopentadecine-2,3′-pyrano[2,3-c]quinolin]-6-yl]carbamate] | 20 | 3590 |  |  | 
Cc1nc2ccccc2c2c1O[C@]1(CC2)C[C@H]2C(=O)N[C@]3(C(=O)NS(=O)(=O)C4(C)CC4)C[C@H]3/C=C\CCCCC[C@H](Nc3nc4ccccc4o3)C(=O)N2C1 [Example 379, (2R,6S,12Z,13aS,14aR,16aS)-6-(1,3-benzoxazol-2-ylamino)-5′-methyl-N-[(1-methylcyclopropyl)sulfonyl]-5,16-dioxo-1,1′,2′,6,7,8,9,10,11,13a,14,15,16,16a-tetradecahydrospiro[cyclopropa[e]pyrrolo[1,2-a][1,4]diazacyclopentadecine-2,3′-pyrano[2,3-c]quinoline]-14a(5H)-carboxamide] | 104 | 1360 |  |  | 
COc1ccc2nc(C)c3c(c2n1)[C@H](F)C[C@]1(C[C@H]2C(=O)N[C@]4(C(=O)NS(=O)(=O)C5(C)CC5)C[C@H]4/C=C\CCCCC[C@H](NC(=O)OC(C)(C)C(F)(F)F)C(=O)N2C1)O3 [Example 380, 1,1,1-trifluoro-2-methylpropan-2-yl [(2S,6S,10′R,12Z,13aS,14aR,16aS)-10′-fluoro-2′-methoxy-6′-methyl-14a-{[(1-methylcyclopropyl)sulfonyl]carbamoyl}-5,16-dioxo-1,5,6,7,8,9,9′,10,10′,11,13a,14,14a,15,16,16a-hexadecahydrospiro[cyclopropa[e]pyrrolo[1,2-a][1,4]diazacyclopentadecine-2,8′-pyrano[2,3-c][1,5]naphthyridin]-6-yl]carbamate] |  |  |  | 21 | 5620
Cc1nc2cc(F)c(F)cc2c2c1O[C@]1(CC2)C[C@H]2C(=O)N[C@]3(C(=O)NS(=O)(=O)C4(C)CC4)C[C@H]3/C=C\CCCCC[C@H](NC(=O)OC(C)(C)C(F)(F)F)C(=O)N2C1 [Example 381, 1,1,1-trifluoro-2-methylpropan-2-yl [(2R,6S,12Z,13aS,14aR,16aS)-8′,9′-difluoro-5′-methyl-14a-{[(1-methylcyclopropyl)sulfonyl]carbamoyl}-5,16-dioxo-1,1′,2′,5,6,7,8,9,10,11,13a,14,14a,15,16,16a-hexadecahydrospiro[cyclopropa[e]pyrrolo[1,2-a][1,4]diazacyclopentadecine-2,3′-pyrano[2,3-c]quinolin]-6-yl]carbamate] | 40 | 6740 |  |  | 
CC(C)COC(=O)N[C@H]1CCCCC/C=C\[C@@H]2C[C@@]2(C(=O)NS(=O)(=O)C2(C)CC2)NC(=O)[C@@H]2C[C@]3(CCc4c(c(C(F)(F)F)nc5ccc(Cl)cc45)O3)CN2C1=O [Example 383, 2-methylpropyl [(2R,6S,12Z,13aS,14aR,16aS)-9′-chloro-14a-{[(1-methylcyclopropyl)sulfonyl]carbamoyl}-5,16-dioxo-5′-(trifluoromethyl)-1,1′,2′,5,6,7,8,9,10,11,13a,14,14a,15,16,16a-hexadecahydrospiro[cyclopropa[e]pyrrolo[1,2-a][1,4]diazacyclopentadecine-2,3′-pyrano[2,3-c]quinolin]-6-yl]carbamate] | 24 | 38300 |  |  | 
CC1(S(=O)(=O)NC(=O)[C@@]23C[C@H]2/C=C\CCCCC[C@H](NC(=O)OC2CCCC2)C(=O)N2C[C@@]4(CCc5c(c(C(F)(F)F)nc6ccc(Cl)cc56)O4)C[C@H]2C(=O)N3)CC1 [Example 384, cyclopentyl [(2R,6S,12Z,13aS,14aR,16aS)-9′-chloro-14a-{[(1-methylcyclopropyl)sulfonyl]carbamoyl}-5,16-dioxo-5′-(trifluoromethyl)-1,1′,2′,5,6,7,8,9,10,11,13a,14,14a,15,16,16a-hexadecahydrospiro[cyclopropa[e]pyrrolo[1,2-a][1,4]diazacyclopentadecine-2,3′-pyrano[2,3-c]quinolin]-6-yl]carbamate] | 23 | 19800 |  |  | 
CC(C)OC(=O)N[C@H]1CCCCC/C=C\[C@@H]2C[C@@]2(C(=O)NS(=O)(=O)C2(C)CC2)NC(=O)[C@@H]2C[C@]3(CCc4c(c(C(F)(F)F)nc5ccc(Cl)cc45)O3)CN2C1=O [Example 385, propan-2-yl [(2R,6S,12Z,13aS,14aR,16aS)-9′-chloro-14a-{[(1-methylcyclopropyl)sulfonyl]carbamoyl}-5,16-dioxo-5′-(trifluoromethyl)-1,1′,2′,5,6,7,8,9,10,11,13a,14,14a,15,16,16a-hexadecahydrospiro[cyclopropa[e]pyrrolo[1,2-a][1,4]diazacyclopentadecine-2,3′-pyrano[2,3-c]quinolin]-6-yl]carbamate] | 17 | 6790 |  |  | 
CC(C)(C)COC(=O)N[C@H]1CCCCC/C=C\[C@@H]2C[C@@]2(C(=O)NS(=O)(=O)C2(C)CC2)NC(=O)[C@@H]2C[C@]3(CCc4c(c(C(F)(F)F)nc5ccc(Cl)cc45)O3)CN2C1=O [Example 386, 2,2-dimethylpropyl [(2R,6S,12Z,13aS,14aR,16aS)-9′-chloro-14a-{[(1-methylcyclopropyl)sulfonyl]carbamoyl}-5,16-dioxo-5′-(trifluoromethyl)-1,1′,2′,5,6,7,8,9,10,11,13a,14,14a,15,16,16a-hexadecahydrospiro[cyclopropa[e]pyrrolo[1,2-a][1,4]diazacyclopentadecine-2,3′-pyrano[2,3-c]quinolin]-6-yl]carbamate] | 29 | 49600 |  |  | 
CC(C)(OC(=O)N[C@H]1CCCCC/C=C\[C@@H]2C[C@@]2(C(=O)NS(=O)(=O)C2(C)CC2)NC(=O)[C@@H]2C[C@]3(CCc4c(c(C(F)(F)F)nc5ccc(Cl)cc45)O3)CN2C1=O)C(F)(F)F [Example 387, 1,1,1-trifluoro-2-methylpropan-2-yl [(2R,6S,12Z,13aS,14aR,16aS)-9′-chloro-14a-{[(1-methylcyclopropyl)sulfonyl]carbamoyl}-5,16-dioxo-5′-(trifluoromethyl)-1,1′,2′,5,6,7,8,9,10,11,13a,14,14a,15,16,16a-hexadecahydrospiro[cyclopropa[e]pyrrolo[1,2-a][1,4]diazacyclopentadecine-2,3′-pyrano[2,3-c]quinolin]-6-yl]carbamate] | 38 | 20100 |  |  | 

From patent US8987195B2 (priority 2012, dated 2015)
